Earlier results as cited in patent US20080241273A1, “MASTIC GUM COMPOSITION FOR USE AS A DIETARY SUPPLEMENT IN HUMANS AND ANIMALS” (INTACT ENTERPRISES, INC., priority 2005, published 2008).

Columns and labels:
[1] = dogs
[2] = hydrochloric acid titrated to a pH between 6 and 7
[3] = 6 mg/kg daily orally for up to 60 days
[4] = infusion, patients with lowered ionized magnesium
[5] = type 1 and type 2 diabetes
[6] = healthy individuals, oral
[7] = oral, six weeks, daily dose of 15 mmol

Compound: C[C@H](O)C(=O)[O-].C[C@H](O)C(=O)[O-].O.O.[Mg+2] [magnesium L-lactate dihydrate]
- bioavailability under decreased acidity [1]: did not impair

Compound: [O]=[Mg] [magnesium oxide]
- reprecipitation [2]: did not occur

Compound: [Mg+2] [magnesium]
- serum concentrations of calcium, magnesium, parathyroid hormone, calcitriol, osteocalcin [3]: increased significantly
- relief of acute migraine [4]: rapid and sustained relief

Compound: O=S(=O)([O-])[O-].[O]=[V+2] [vanadyl sulfate]
- blood sugar [5]: reduced
- insulin sensitivity [5]: improved

Compound: magnesium citrate
- in vivo absorption (rise in urinary magnesium levels) [6]: absorbed to a much greater extent than the oxide
- reprecipitation [2]: did not occur

Compound: magnesium lactate citrate
- bioavailability [7]: satisfactory
